Measured values reported in ChEMBL document CHEMBL6074651, “Hit-to-lead optimization of 4,5-dihydrofuran-3-sulfonyl scaffold against Leishmania amazonensis. Effect of an aliphatic moiety” (Eur J Med Chem, 2024).

What was measured:
[1] = test system: Leishmania amazonensis; assay: Antileishmanial activity against leishmania amazonensis promastigotes MHOM/BR/77/LTB0016 assessed as parasite growth inhibition incubated for 72 hrs by resazurin dye based analysis; format: functional, organism-based; conditions: MHOM/BR/77/LTB0016, 72 h
[2] = Cytotoxicity against mouse Peritoneal macrophage cell assessed as inhibition of cell viability incubated for 72 hrs by resazurin dye based analysis; format: toxicity; conditions: peritoneal macrophages
[3] = test system: Leishmania amazonensis; assay: Antileishmanial activity against leishmania amazonensis intracellular amastigotes assessed as parasite growth inhibition measured after 72 hrs by hematological dye based microscopic analysis; format: functional, organism-based
[4] = Selectivity index, ratio of CC50 for cytotoxicity against murine peritoneal macrophages assessed as inhibition of cell viability to IC50 for antileishmanial activity against leishmania amazonensis intracellular amastigotes assessed as parasite growth inhibition; format: toxicity, cell-based, Macrophage; conditions: mouse, read-out: Ratio CC50/IC50

In the case of `CC1(Cc2ccccc2)CC(C(=O)NC2CCCC2)=C(c2ccc(/C(N)=N/O)cc2)O1` (stereo unspecified), the IC50 [1] is reported as 61.1 µM.

In the case of `CC1(Cc2ccccc2)CC(C(=O)N2CCOCC2)=C(c2ccc(/C(N)=N/O)cc2)O1` (stereo unspecified), the IC50 [1] is reported as > 128 µM.

With `CC1(Cc2ccccc2)CC(S(C)(=O)=O)=C(c2ccc(/C(N)=N/O)cc2)O1` (stereo unspecified) the IC50 [1] was 91.4 µM.

With `CCOC(=O)C1=C(c2ccc(/C(N)=N/O)cc2)OC(C)(Cc2ccccc2)C1` (stereo unspecified) the CC50 at 72 h [2] was 112 µM, the IC50 [1] was 6.3 µM and the IC50 [3] was 1.3 µM. For the same compound, the selectivity ratio [4] was 87.8.

For `CC1(Cc2ccccc2)CC(C(=O)NCCN2CCCC2)=C(c2ccc(/C(N)=N/O)cc2)O1` (stereo unspecified), the IC50 [1] was 102 µM.

`CCCCNC(=O)C1=C(c2ccc(/C(N)=N/O)cc2)OC(C)(Cc2ccccc2)C1` (stereo unspecified) showed an IC50 [1] of 92.6 µM.

In the case of `COC(=O)C1=C(c2ccc(/C(N)=N/O)cc2)OC(C)(Cc2ccccc2)C1` (stereo unspecified), the CC50 at 72 h [2] is reported as 70.6 µM, the IC50 [1] is reported as 4.7 µM and the IC50 [3] is reported as 2.3 µM. It also gave a selectivity ratio [4] of 30.7.

Compound `CCCCS(=O)(=O)C1=C(c2ccc(/C(N)=N/O)cc2)OC(C)(Cc2ccccc2)C1` (stereo unspecified) has an IC50 [1] of 63.5 µM.

`CCN(CC)C(=O)C1=C(c2ccc(/C(N)=N/O)cc2)OC(C)(Cc2ccccc2)C1` (stereo unspecified) showed an IC50 [1] of 60.4 µM.

In the case of `CC1(Cc2ccccc2)CC(C(=O)NC2CCCCC2)=C(c2ccc(/C(N)=N/O)cc2)O1` (stereo unspecified), the IC50 [1] is reported as 43.6 µM.
